The source of these data is PubChem BioAssay AID743339 (Broad Institute, 2014).

The source made the active and inactive calls.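 Rule for the calls: active = activation curve crossing 200% at or below the highest valid dose tested for that sample; inconclusive = flat curve with activation between 30 and 70%, or poor fit; inactive = the rest, including signal falling instead of rising.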

For the first assay, the target named is Leucyl-cystinyl aminopeptidase (Mus musculus) (UniProt Q8C129). Put plainly: activation of mouse IRAP aminopeptidase activity – biochemical, Leu-AMC fluorescence, cherry-picked samples, selectivity assay for ERAP1 modulator project, dose response (AID 743339). As to conditions: purified IRAP, Leu-AMC cleavage fluorescence, 1 h.
Leucyl-cystinyl aminopeptidase (Mus musculus), sequence (Q8C129 whole entry, looked up): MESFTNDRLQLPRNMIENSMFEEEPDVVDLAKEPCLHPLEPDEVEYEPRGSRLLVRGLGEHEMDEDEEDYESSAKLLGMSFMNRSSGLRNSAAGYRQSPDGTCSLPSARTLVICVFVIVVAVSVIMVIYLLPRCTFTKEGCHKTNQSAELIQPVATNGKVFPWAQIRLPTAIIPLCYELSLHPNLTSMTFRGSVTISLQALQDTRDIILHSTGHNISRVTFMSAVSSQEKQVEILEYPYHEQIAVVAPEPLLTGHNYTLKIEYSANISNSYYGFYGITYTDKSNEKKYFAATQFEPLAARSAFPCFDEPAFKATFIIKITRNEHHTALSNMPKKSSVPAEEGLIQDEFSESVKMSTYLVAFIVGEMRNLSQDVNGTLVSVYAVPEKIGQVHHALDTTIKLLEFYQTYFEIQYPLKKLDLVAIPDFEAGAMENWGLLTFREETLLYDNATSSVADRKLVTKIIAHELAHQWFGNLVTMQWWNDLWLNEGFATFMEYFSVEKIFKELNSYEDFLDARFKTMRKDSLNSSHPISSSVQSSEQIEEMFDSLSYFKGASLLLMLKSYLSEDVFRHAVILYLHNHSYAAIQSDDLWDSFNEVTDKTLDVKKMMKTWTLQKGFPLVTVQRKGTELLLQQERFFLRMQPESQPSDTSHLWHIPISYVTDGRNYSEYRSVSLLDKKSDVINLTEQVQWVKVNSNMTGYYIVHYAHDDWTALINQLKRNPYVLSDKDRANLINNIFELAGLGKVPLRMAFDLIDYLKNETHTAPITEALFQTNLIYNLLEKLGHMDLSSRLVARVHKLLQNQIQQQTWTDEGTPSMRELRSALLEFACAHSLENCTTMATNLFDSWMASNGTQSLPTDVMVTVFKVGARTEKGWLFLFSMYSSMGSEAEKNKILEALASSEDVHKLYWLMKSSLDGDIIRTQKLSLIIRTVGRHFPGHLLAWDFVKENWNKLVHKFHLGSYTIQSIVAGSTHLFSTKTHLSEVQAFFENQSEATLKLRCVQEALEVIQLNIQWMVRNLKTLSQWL
With `CCCN1[C@@H]2c3ccc(/C=C/c4ccccc4)c(=O)n3C[C@H]1[C@H](CO)[C@H]2C(=O)NCc1ccccn1`, the AC200 was 1000 nM.

Regarding `Cc1c(CC(=O)N2CCN(C(=O)C3COc4ccccc4O3)CC2)c(=O)oc2cc(O)c(Cl)cc12` (stereo not given), the AC200 is 661 nM. As to `CCCN1[C@@H]2Cn3c(ccc(/C=C/c4ccccc4)c3=O)[C@H]1[C@@H](C(=O)NCc1ccccn1)[C@@H]2CO`, the AC200 is 992 nM.

With `Cc1ccc2nc3c(cc(C(=O)NCc4ccccc4)c(=N)n3CCCn3ccnc3)c(=O)n2c1`, the AC200 is 2010 nM.

Regarding `CC1CN(Cc2cc(=O)oc3cc(O)c(Cl)cc23)CC(C)O1` (stereo not given), the AC200 was 1350 nM. `CCNC(=O)[C@@H]1[C@@H](CO)[C@@H]2Cn3c(ccc(/C=C/c4ccccc4)c3=O)[C@H]1N2C(=O)C1CCCC1`: the AC200 is 824 nM. Same read-out and setting: then `CCCCc1cc(=O)oc2cc(O)ccc12`, with 1670 nM; and `O=C(NCc1ccccn1)[C@@H]1[C@@H](CO)[C@@H]2Cn3c(ccc(/C=C/c4ccccc4)c3=O)[C@H]1N2CC1CC1`, with 1030 nM; and `Cc1ccc(S(=O)(=O)c2cc3ccc(O)cc3oc2=O)cc1C`, with 362 nM. Same read-out and setting: in the case of `COc1ccc(-c2cc3ccc(O)cc3oc2=O)cc1` it was 398 nM. Same read-out and setting: in the case of `O=c1ccc2cc(O[C@@H]3O[C@H](CO)[C@@H](O)[C@H](O)[C@H]3O)c(O)cc2o1` it was 307 nM. For `CCc1c(C)c2cc(Cl)c(O)c(CN(C)C)c2oc1=O`, the AC200 was 471 nM. Turning to `CCNC(=O)[C@H]1[C@H](CO)[C@H]2Cn3c(ccc(/C=C/c4ccccc4)c3=O)[C@@H]1N2C(=O)C1CCCC1`, the AC200 is 675 nM. Same read-out and setting: then `O=c1cc(CN2CCOCC2)c2cc(Cl)c(O)cc2o1`, with 1100 nM. With `Cc1c(C)c2ccc(O)c(CN3CCCC3)c2oc1=O`, the AC200 is 1040 nM. Regarding `COC(=O)[C@@H]1[C@@H](CO)[C@@H]2Cn3c(ccc(/C=C/c4ccccc4)c3=O)[C@H]1N2C(=O)C1CCC1`, the AC200 is 1080 nM.

Consider `O=c1ccc2cc(O[C@@H]3O[C@@H](CO)[C@H](O)[C@@H](O)[C@@H]3O)c(O)cc2o1`, for which the AC200 is 363 nM. Consider `CCN1CCN(Cc2c(O)ccc3c(C)cc(=O)oc23)CC1`, for which the AC200 is 1540 nM. Still for that read-out and setting: in the case of `Cc1c(O)ccc2cc(S(=O)(=O)c3ccccc3)c(=O)oc12` it was 439 nM. `Cc1cc(=O)oc2c(CN3CCCC3)c(O)c(Cl)cc12`: the AC200 is 673 nM. With `O=S(=O)(O)c1ccc(N2N=C(c3ccccc3)CC2c2ccccc2)cc1` (stereo not given), the AC200 was 1010 nM. As to `COc1ccc(CNCc2c(O)c(Cl)cc3c(C)c(C)c(=O)oc23)c(OC)c1`, the AC200 was 493 nM.

As to `CCc1cc(=O)oc2c(CNCc3c(F)cccc3Cl)c(O)ccc12`, the AC200 was 832 nM. Same read-out and setting: in the case of `CN1[C@@H]2Cn3c(ccc(/C=C/c4ccccc4)c3=O)[C@H]1[C@@H](C(=O)NC1CCCC1)[C@@H]2CO` it was 983 nM; in that of `CCN(CC)c1ccc2c(C)c(Cl)c(=O)oc2c1`, 964 nM.

With `Cc1cc(=O)oc2c(CN3CCN(C)CC3)c(O)c(Cl)cc12`, the AC200 was 634 nM.

Still in this assay, the particulars now being: purified IRAP, Leu-AMC cleavage fluorescence, 1 h; at 2.6 µM (top of the series).
For the compound `COc1cc2cc(C(=O)N3CCN(Cc4ccc5c(c4)OCO5)CC3)c(=O)oc2cc1OC`, the activation is 150% (inactive).

The same assay, now with this note: purified IRAP, Leu-AMC cleavage fluorescence, 1 h; at 5 µM (top of the series).
As for `C[C@@H]1CCCCO[C@@H](CN(C)C(=O)CCC(F)(F)F)[C@@H](C)CN([C@@H](C)CO)C(=O)c2cc(NS(=O)(=O)c3ccc(Cl)cc3)ccc2O1`, the activation was 22.3% (inactive).

The assay is the same for the next values; noted with them: purified IRAP, Leu-AMC cleavage fluorescence, 1 h; at 10 µM (top of the series).
For the compound `Cc1noc(C)c1S(=O)(=O)N(C)C[C@@H]1OCCCC[C@@H](C)Oc2ccc(NS(=O)(=O)c3cccs3)cc2C(=O)N([C@@H](C)CO)C[C@@H]1C`, the activation is -12.6% (inactive). Still for that read-out and setting: then `CCCN(C)C[C@@H]1OCCCC[C@@H](C)Oc2ccc(NS(=O)(=O)c3ccc(C)cc3)cc2C(=O)N([C@H](C)CO)C[C@@H]1C`, with -8.1% (inactive); and `C[C@@H]1CCCCO[C@@H](CN(C)C)[C@H](C)CN([C@@H](C)CO)C(=O)c2cc(NC(=O)Nc3ccc(C(F)(F)F)cc3)ccc2O1`, with -1.06% (inactive).

Still in this assay, the particulars now being: purified IRAP, Leu-AMC cleavage fluorescence, 1 h; at 11 µM (top of the series).
In the case of `N#Cc1c(N2CCNCC2)nc(-c2ccco2)c2c1CCCC2`, the activation was 56.4% (inactive).

For `COc1cccc(S(=O)(=O)N(C)C[C@@H]2Oc3ncccc3C(=O)N([C@H](C)CO)C[C@@H]2C)c1`, the activation was 79.6% (inactive).

For `C[C@H](CO)N1C[C@H](C)[C@H](CN(C)CC2CCCCC2)Oc2c(NC(=O)Nc3ccc(C(F)(F)F)cc3)cccc2C1=O`, the activation is 12.3% (inactive). `C[C@@H]1CCCCO[C@@H](CN(C)Cc2ccc(C(=O)O)cc2)[C@H](C)CN([C@@H](C)CO)C(=O)c2cc(NS(=O)(=O)c3ccc(Cl)cc3)ccc2O1`: the activation was -3.97% (inactive).

Take `NC(=NCCc1c[nH]c2ccccc12)NS(=O)(=O)c1cc(F)ccc1F`: the activation is 20.9% (inactive). Same read-out and setting: then `CCN(CCCl)c1cc(CN(C)C)cc(NC(=O)c2ccc(C(=O)Nc3cc(CN(C)C)cc(N(CC)CCCl)c3)cc2)c1`, with -21% (inactive); and `CCCN(C)C[C@@H]1OCCCC[C@@H](C)Oc2ccc(NS(=O)(=O)c3cccs3)cc2C(=O)N([C@H](C)CO)C[C@@H]1C`, with -6.14% (inactive). Same read-out and setting: in the case of `COc1ccc(CN(C)C[C@@H]2OCCCC[C@@H](C)Oc3ccc(NS(=O)(=O)c4cccs4)cc3C(=O)N([C@H](C)CO)C[C@H]2C)cc1` it was 3.48% (inactive).

For `C[C@H](CO)N1C[C@H](C)[C@@H](CN(C)CC2CC2)Oc2c(NC(=O)Nc3ccc(C(F)(F)F)cc3)cccc2C1=O`, the activation is -14.9% (inactive). With `COc1ccc(CN(C)C[C@@H]2OCCCC[C@@H](C)Oc3ccc(NS(=O)(=O)c4c(C)noc4C)cc3C(=O)N([C@@H](C)CO)C[C@@H]2C)cc1`, the activation was -18.2% (inactive). On the same count and under the same terms, in the case of `C[C@@H]1CCCCO[C@@H](CN(C)S(C)(=O)=O)[C@@H](C)CN([C@@H](C)CO)C(=O)c2cc(NS(=O)(=O)c3ccc(Cl)cc3)ccc2O1` it was -13.3% (inactive); in that of `COC(=O)[C@H]1[C@H](CO)[C@H]2Cn3c(ccc(-c4ccncc4)c3=O)[C@H]2N1Cc1ccccc1F`, 19% (inactive); in that of `C[C@@H]1CCCCO[C@@H](CN(C)C)[C@@H](C)CN([C@@H](C)CO)C(=O)c2cc(NS(=O)(=O)c3ccc(F)cc3)ccc2O1`, -0.129% (inactive).

For `C[C@H](CO)N1C[C@H](C)[C@H](CN(C)CC2CCCCC2)Oc2c(NC(=O)Nc3ccc4c(c3)OCO4)cccc2C1=O`, the activation is -3.26% (inactive). The same measure, in the same setting: then `O=C(C[C@@H]1CC[C@@H]2[C@H](COC[C@H](O)CN2C(=O)Nc2cccc(Cl)c2)O1)N1CCCCC1`, with 7.14% (inactive); and `O=C(Nc1ccc(C(F)(F)F)cc1)N1[C@@H]2CNC[C@H]1C2c1ccc(-c2ccncc2)cc1` (stereo not given in full), with 4.27% (inactive); and `Cc1ccccc1-c1ccc2c(c1)O[C@@H](CN(C)Cc1ccc(C(=O)O)cc1)[C@@H](C)CN([C@@H](C)CO)S2(=O)=O`, with 4.16% (inactive).

Turning to `C[C@H]1CN([C@@H](C)CO)C(=O)c2cccc(NC(=O)Nc3ccc(C(F)(F)F)cc3)c2O[C@@H]1CN(C)CC1CC1`, the activation was -18.4% (inactive). `COc1ccc2c3c([nH]c2c1)[C@H](CO)N(Cc1cc(F)ccc1F)CC31CN(C)C1`: the activation is 1.85% (inactive). As for `COc1ccc(C(=O)O)cc1S(=O)(=O)Nc1cc(C(F)(F)F)ccc1N1CCCCC1`, the activation is 18.7% (inactive). `C[C@@H]1CCCCO[C@@H](CN(C)Cc2ccc3c(c2)OCO3)[C@@H](C)CN([C@H](C)CO)C(=O)c2cc(NS(=O)(=O)c3cccs3)ccc2O1`: the activation is -8.52% (inactive). Regarding `COc1ccc(S(=O)(=O)Nc2ccc3c(c2)C(=O)N([C@@H](C)CO)C[C@H](C)[C@H](CN(C)C)OCCCC[C@@H](C)O3)cc1`, the activation is -2.35% (inactive).

For the compound `C[C@H]1CN([C@@H](C)CO)C(=O)c2cccc(NC(=O)Nc3ccc(F)cc3)c2O[C@@H]1CN(C)C(=O)Nc1ccc2c(c1)OCO2`, the activation is 21.6% (inactive). Still for that read-out and setting: then `CCCN(C)C[C@@H]1OCCCC[C@@H](C)Oc2ccc(NS(=O)(=O)c3ccc(F)cc3)cc2C(=O)N([C@H](C)CO)C[C@@H]1C`, with -17.1% (inactive). As for `CO[C@@H]1CN(C)C(=O)c2ccc(NC(=O)Nc3cccc(Cl)c3)cc2OC[C@@H](C)NC[C@H]1C`, the activation was 15.1% (inactive). Take `COc1ccc(CN(C)C[C@@H]2OCCCC[C@@H](C)Oc3ccc(NS(=O)(=O)c4cccs4)cc3C(=O)N([C@@H](C)CO)C[C@H]2C)cc1`: the activation was -1.66% (inactive). For the compound `CCCNC(=O)C[C@H]1CC[C@@H]2[C@H](COC[C@H](O)CN2C(=O)Nc2cccc(Cl)c2)O1`, the activation was 24.9% (inactive). Regarding `C[C@@H]1CCCCO[C@@H](CN(C)C)[C@@H](C)CN([C@@H](C)CO)C(=O)c2cc(NS(=O)(=O)c3ccc(Cl)cc3)ccc2O1`, the activation is -6.93% (inactive). On the same count and under the same terms, in the case of `Cc1ccc(S(=O)(=O)Nc2ccc3c(c2)C(=O)N([C@@H](C)CO)C[C@H](C)[C@H](CN(C)C)OCCCC[C@@H](C)O3)cc1` it was 8.57% (inactive). In the case of `C[C@@H]1CCCCO[C@H](CN(C)C)[C@H](C)CN([C@H](C)CO)C(=O)c2cc(NS(=O)(=O)c3ccc(Cl)cc3)ccc2O1`, the activation was 8.36% (inactive).

For `Cc1noc(C)c1NC(=O)Nc1ccc2c(c1)C(=O)N([C@H](C)CO)C[C@@H](C)[C@@H](CN(C)Cc1ccc(C(F)(F)F)cc1)OCCCC[C@@H](C)O2`, the activation was -4.93% (inactive). Same read-out and setting: in the case of `C[C@H](CO)N1C[C@H](C)[C@H](CN(C)Cc2ccncc2)Oc2c(NC(=O)Nc3ccc(C(F)(F)F)cc3)cccc2C1=O` it was 10.6% (inactive); in that of `C[C@@H]1CN([C@H](C)CO)C(=O)c2cccc(NC(=O)Nc3ccccc3)c2O[C@@H]1CN(C)Cc1ccc(C(=O)O)cc1`, 17.7% (inactive); in that of `C[C@@H]1CCCCO[C@H](CN(C)Cc2ccc(C(=O)O)cc2)[C@H](C)CN([C@@H](C)CO)C(=O)c2cc(NC(=O)Nc3ccc(C(F)(F)F)cc3)ccc2O1`, 11.1% (inactive).
